Some results are limits rather than exact numbers.

Here are results for two compounds from patent US20260034236A1, “NEW DRUG COMPLEX” (KOWA COMPANY, LTD., priority 2022, published 2026).

The test system of test [1] is mouse colon cancer cell line C26. As to the kind of experiment: Drug efficacy test in C26 tumor-bearing nude mice. Particulars: after 14 days from administration; tail vein, 3 times every other day; 8 mg/kg (3.9 mg/kg in terms of Pt). It counts as in vivo. On the procedure:
A tumor-bearing model obtained by subcutaneously transplanting a mouse colon cancer cell line C26 (American Type Culture Collection) into a female nude mouse (BALB/c-nu/nu, 7 weeks old; Charles River Laboratories Japan, Inc.) was used for a drug efficacy test.
A mouse colon cancer cell line C26 subcultured in a CO2 incubator was suspended in a liquid medium (Dulbecco's Modified Eagle's Medium-high glucose, Sigma-Aldrich Co. LLC), and injected subcutaneously in the back of nude mice so that the number of cells per mouse was 1×10^6/100 μL. Thereafter, the nude mice were raised for about 1 week, and administration of a drug was started when the average value of the tumor volume had grown to about 30 mm^3. A DACHPt-encapsulating SCNP (DACHPt-encapsulating SCNP prepared using the copolymer of Example 70) was administered into the tail vein (3 times every other day), and the antitumor effect was evaluated based on the tumor volume (4 to 5 mice per 1 group). As a comparison, an oxaliplatin solution (Comparative Example 1) was used, and it was administered in the same manner. The dose of each preparation was 8 mg/kg (3.9 mg/kg in terms of Pt) as the maximum administrable dose for the oxaliplatin solution, and 3 mg/kg in terms of Pt for the DACHPt-encapsulating SCNP. […]

In test [2] the test system is CD20 antigen-positive human B-cell lymphoma-derived Raji cells. As to the kind of experiment: Cytotoxic test (CellTiter-Glo), CD20 antigen-positive cells. Particulars: high expression of CD20, cultured 4 days, read-out: IC50(nmol/L) Raji (High expression of CD20). It counts as cell-based. The procedure:
(§1) CD20 antigen-positive human B-cell lymphoma-derived Raji cells or CD20 antigen-negative human T-lymphoblastic leukemia-derived MOLT-4 cells were adjusted to a cell concentration of 5.0×10^4 cells/mL with the RPMI1640 medium, and 50 μL each was added to the 96-well microplate for cell culture, then cultured overnight. On the next day, 50 μL of the evaluation specimen diluted with the RPMI medium was separately added to the microplate, and the cells were cultured for 4 days at 37° C. under 5% CO2. After the culturing, CellTiter-Glo™ Luminescent Cell Viability Assay (Promega Corporation) was added to the microplate, and the mixture was stirred and left to stand at room temperature for 10 minutes. The light emission amount was then measured with a plate reader (Molecular Devices, LLC.). The cell viability and IC50 value were calculated.

Test [3] concerns CD20 antigen-negative human T-lymphoblastic leukemia-derived MOLT-4 cells. Description: Cytotoxic test (CellTiter-Glo), CD20 antigen-negative cells. It counts as cell-based. Particulars: cultured 4 days, read-out: IC50(nmol/L) MOLT-4 (CD20 negative). On the procedure:
as §1

`O=C1[O][Pt]2([NH][C@@H]3CCCC[C@H]3[NH]2)[O]C1=O` [Comparative Example 1, oxaliplatin]: the “T/C (ratio of the tumor volume of the drug administration group to that of the control group)” value in test [1] was 1.1.

With rituximab [Comparative Example 4], the IC50 in test [2] and in test [3] was above 69 nmol/L throughout.
